The values below come from publication PMC4515242, “ESR and X-ray Structure Investigations on the Binding and Mechanism of Inhibition of the Native State of Myeloperoxidase with Low Molecular Weight Fragments” (Applied Magnetic Resonance, 2015).

The target of one experiment is T1, Human Myeloperoxidase (Homo sapiens, UniProt P05164).
T1 construct: purchased Lee Biosciences 426-10
T1 sequence (P05164 49-745): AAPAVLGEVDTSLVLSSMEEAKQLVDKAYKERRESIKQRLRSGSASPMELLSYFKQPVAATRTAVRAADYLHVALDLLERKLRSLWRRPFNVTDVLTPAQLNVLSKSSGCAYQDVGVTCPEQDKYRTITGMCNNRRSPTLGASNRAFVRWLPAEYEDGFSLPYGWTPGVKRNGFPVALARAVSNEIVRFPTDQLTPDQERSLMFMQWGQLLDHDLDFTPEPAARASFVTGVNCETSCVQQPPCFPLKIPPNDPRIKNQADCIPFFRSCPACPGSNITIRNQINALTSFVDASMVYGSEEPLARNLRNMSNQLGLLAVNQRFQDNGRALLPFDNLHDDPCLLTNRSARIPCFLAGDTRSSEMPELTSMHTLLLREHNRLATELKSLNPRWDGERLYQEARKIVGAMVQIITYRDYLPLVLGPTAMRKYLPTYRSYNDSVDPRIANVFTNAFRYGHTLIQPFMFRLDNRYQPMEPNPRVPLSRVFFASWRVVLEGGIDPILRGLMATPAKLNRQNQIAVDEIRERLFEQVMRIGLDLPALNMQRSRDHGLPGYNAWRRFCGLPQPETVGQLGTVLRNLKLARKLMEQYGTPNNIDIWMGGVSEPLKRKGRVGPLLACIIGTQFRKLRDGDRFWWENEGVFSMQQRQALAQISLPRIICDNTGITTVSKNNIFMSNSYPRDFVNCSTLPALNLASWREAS
Nature of the experiment: X-ray co-crystal growth by soaking MPO crystals with inhibitor. The conditions noted are these: crystals soaked with 50 mM inhibitor. As to the method:
Human Myeloperoxidase and co-crystals of MPO were crystallized and analyzed using methods similar to those described by Davey and Fenna. Briefly, hanging drops of 25 mg/mL MPO, 25 mM sodium acetate pH 5.0, 50 mM NaCl, 50 mM ammonium sulfate, 2 mM calcium chloride, and 3-10 % polyethylene glycol 8000 were set up at 21 °C over reservoir solutions containing 300 mM sodium chloride. Crystals of the space group P21 and having two MPO subunits per asymmetric unit grew with the aid of micro-seeding as very thin plates having a brownish orange tinge. Crystals were soaked with inhibitor compounds at a concentration of 50 mM, in a stabilizing buffer containing 18 % polyethylene glycol 8000, 56 mM ammonium sulfate, 2.2 mM calcium acetate, and 56 mM HEPES pH 7.0. Co-crystals were cryo-protected in a stabilizing buffer containing 22.2 % methylpentanediol prior to flash cooling in liquid nitrogen.
Diffraction data were collected at 100 K using Synchrotron beam line 31ID at the Advanced Photon Source (Argonne National Laboratory) and were integrated using MOSFLM v.6.2.6 [18]. […] Inhibitor binding to the MPO heme group was indicated by appropriately shaped peaks in the Fo–Fc electron density maps. The inhibitor was included in the model, and iterative cycles of manual model building with COOT [20] and restrained refinement with REFMAC v5.2.0019 [21] were used to complete the overall structure. Figures of the crystal structure were generated using PYMOL (www.pymol.org). […] The higher B-factors for the inhibitor molecules could be attributed to inhibitor occupancies of less than 1.0 or to higher degrees of thermal motion associated with the inhibitors. Lower than expected electron density peak heights were also observed for the Cl atom in the inhibitors, which could be due to the radiation damage to this X-Ray sensitive group.

The target of experiment [1] is T2, hMPO (Homo sapiens, UniProt P05164).
T2 construct: purchased Biodesign A31804H
T2 sequence (P05164 49-745): T1 sequence (P05164 49-745)
Nature of the experiment: Reversible binding assay (filtration and ESR after washing). The conditions noted are these: bound complex washed with buffer, then ESR at 4 K. On the procedure: We performed the following two assays for independently confirming the reversibility of binding. In the filtration method, hMPO stock (1.5 mg/ml) is diluted to 5 μg/ml with 20 mM phosphate buffer pH 7.4, 10 % glycerol (no gelatin). 120 μl of this solution is mixed with an equal volume of the compounds at a concentration of 30 μM (final concentration […]), followed by mixing in the plate and incubation for 15 min. at room temperature. 120 μl aliquot of this solution is transferred into separate YM30 Micron filter units and centrifuged 6 min at 9000 rpm, followed by the addition of 300 μl of the buffer and further centrifugation for 12 min. at 9000 rpm. Wash and centrifuge cycles are repeated 2 more times with 300 μl buffer, each followed by 12 min. centrifugation steps. The protein left on the membrane is mixed with the PB buffer to a final volume of 120 μl and subjected to Alpha screen method as described before to probe the nitration of Apo A1 peptide substrate which is taken as a confirmation of the restoration of the catalytic activity of the protein.
In the ESR protocol, the methodology of Hori et al. was applied with some modifications.The protocol followed is similar to the binding assay except that a higher concentration of hMPO (9.2 μM final) is used. This is necessary as multiple washings followed by dilutions lead to considerable loss of the enzyme due to its retention on the membrane. After 5 min of incubation in the eppendorf at room temperature, the contents were transferred to an Amicon Ultra-4 tube (5 ml capacity) and filled with 4 ml of 0.1 M sodium acetate buffer (containing 50 mM NaCl) pH 6.0. Using spin conditions of 4000×g in a swinging bucket rotor at 20 °C, the samples are washed repeatedly (2×) followed with a final wash containing 1 ml of the sodium acetate buffer (chloride free) + 25 % n-propanol and then concentrated. The concentrated solution ca. 300 μl is transferred to ESR quartz tubes and measured at 4 K. A higher concentration of MPO in these reversible binding assays enabled a good ESR signal over noise from the washed (3X) sample.

The target in experiment [2] is T2, hMPO. Nature of the experiment: Peroxidase inhibition assay: ESR of hMPO exposed to H2O2 with and without inhibitor. Particulars: inhibitor added before H2O2 (555 μM); inhibitor:MPO 40:1, in DMSO. It is filed as biochemical. On the procedure: Hydrogen peroxide (30 %, v/v; 9.71 M) is used with different dilutions in ice-cold deionized water. MPO at 50 μl of 20.8 μM (4.6 μM final concentration) is incubated with different concentrations of H2O2 in the absence and in the presence of inhibitors (inhibitor to MPO concentration is 40:1) for 1 min and rapidly frozen at 77 K. The inhibitors are added to MPO, incubated for 5 min prior to H2O2 addition in these reactions.

Molecules are shown by their SMILES.

Take `O=C(O)c1nn(-c2ccccc2)cc1O` [LSN17948]: on Human Myeloperoxidase, the “X ray Cocrystal result” value is on record as “Yes”. In addition, the “reversibility of the binding” value at hMPO [1] is listed as “Reversible in its action”. In addition, on hMPO [2], the “prevention of peroxide-induced ESR changes (decay of g X and g Y, growth of g ~ 6)” value is “The spectrum is unchanged and no g intermediate signal is seen”.
For the molecule `O=C(O)c1n[nH]c(-c2ccccc2)c1O` [LSN87637], on Human Myeloperoxidase, the “X ray Cocrystal result” value is “Yes”. Also, at hMPO [1], the “reversibility of the binding” value was “Reversible in its action”.
As to `O=C(O)c1nn(-c2cccc3ccccc23)cc1O` [LSN2944556], the “X ray Cocrystal result” value on Human Myeloperoxidase is recorded as “Yes”. Also, at hMPO [1], the “reversibility of the binding” value is reported as “Reversible in its action”.
